According to publication PMC5505648 (Bioorganic & medicinal chemistry, 2017):

Legend:
Ester-to-amide = assay type: physicochemical; settings: for Rearrangement of ester to amide in dosing vehicle: 50% DMSO in saline; for Rearrangement of ester to amide product: polar, protic solvents / aqueous HPLC conditions
[1] = Oral bioavailability / serum pharmacokinetics study in mice; assay type: in vivo; settings: C57Bl/6, mouse; for clearance: iv
[2] = in vivo
Hairless (Hr) gene = test: Brain expression of Hairless; assay type: in vivo; settings: mice, brain Hr expression ED50

## Cc1cc(OCC(=O)OC(CN)C(C)C)cc(C)c1Cc1ccc(O)c(C(C)C)c1 (centres unmarked) [Compound 11, 1-amino-3-methylbutan-2-yl 2-(4-(4-hydroxy-3-isopropylbenzyl)-3,5-dimethylphenoxy)acetate]
Ester-to-amide
  Rearrangement of ester to amide in dosing vehicle: do not rearrange to amides
  Rearrangement of ester to amide product: did not display rearrangement to the amide product

## CNCC(OC(=O)COc1cc(C)c(Cc2ccc(O)c(C(C)C)c2)c(C)c1)C(C)C (centres unmarked) [Compound 12, 3-methyl-1-(methylamino)butan-2-yl 2-(4-(4-hydroxy-3-isopropylbenzyl)-3,5-dimethylphenoxy)acetate]
Ester-to-amide
  Rearrangement of ester to amide in dosing vehicle: do not rearrange to amides
  Rearrangement of ester to amide product: did not display rearrangement to the amide product

## Cc1cc(OCC(=O)O)cc(C)c1Cc1ccc(O)c(C(C)C)c1 [Compound 1, Sobetirome, reference compound]
[1]; serum, 3.05 μmol/kg
  clearance: 8 mL/min/kg

## CNCC(C)OC(=O)COc1cc(C)c(Cc2ccc(O)c(C(C)C)c2)c(C)c1 (centres unmarked) [Compound 7, 1-(methylamino) propan-2-yl 2-(4-(4-hydroxy-3-isopropylbenzyl)-3,5-dimethylphenoxy) acetate]
Ester-to-amide
  Rearrangement of ester to amide product: freely rearrange to their corresponding tertiary amides

## Cc1cc(OCC(=O)OC2(C(F)(F)F)CNC2)cc(C)c1Cc1ccc(O)c(C(C)C)c1 [Compound 15]
Ester-to-amide
  Rearrangement of ester to amide in dosing vehicle: do not rearrange to amides
  Rearrangement of ester to amide product: did not display rearrangement to the amide product

## Cc1cc(OCC(=O)O[C@@H](C)CN)cc(C)c1Cc1ccc(O)c(C(C)C)c1 [Compound 3, (S)-1-aminopropan-2-yl 2-(4-(4-hydroxy-3-isopropylbenzyl)-3,5-dimethylphenoxy)acetate]
[1]; in vivo
  Amount of sobetirome from cleavage of 3 in blood, oral vs intravenous dosing: 2.4 fold
  clearance: 28 mL/min/kg
[2]; male, C57Bl/6, mouse
  Fold increase of sobetirome exposure (AUC) in brain vs equimolar sobetirome: ~ 2 fold
  Fold reduction of parent drug exposure in heart vs equimolar sobetirome: ~ 3 fold
  Fold reduction of parent drug exposure in kidney vs equimolar sobetirome: ~ 2 fold
  Fold reduction of parent drug exposure in liver vs equimolar sobetirome: ~ 2 fold
  Fold reduction of parent drug exposure in serum vs equimolar sobetirome: ~ 3.5 fold
[2]; mouse, ip
  Time of Cmax / Tmax in all tissues analyzed: 15 to 30 min
Hairless (Hr) gene
  Fold increase in potency compared to sobetirome: ~2 fold
Ester-to-amide; aqueous HPLC sample, approximately 30 minutes later
  Species in chromatogram on re-sampling the same solution: showed only the amide 3b
Ester-to-amide; aqueous HPLC sample/run conditions, within 5 minutes of running
  Fraction of ester converted to amide: approximately 25%

## 2-(methylamino)ethyl 2-(4-(4-hydroxy-3-methylbenzyl)-3,5-dimethylphenoxy)acetate [Compound 13]
Ester-to-amide
  Rearrangement of ester to amide product: freely rearrange to their corresponding tertiary amides
